The target of data set [1] is CgNal (Corynebacterium glutamicum, UniProt Q8NMD2). In words: Effects of metal ions and surfactant on the CgNal activity. The format is biochemical, Corynebacterium glutamicum ATCC 13032. The note with it: for effect on reaction of CgNal in the decomposing Neu5Ac direction / effect on reaction of CgNal in the synthesizing Neu5Ac direction: pH 7.5; for overall effect on CgNal enzyme activity / effect on superiority of Neu5Ac synthesis over Neu5Ac decomposition: pH 8.5.

Substrate in data set [2]: CC(=O)C(=O)O
In words: purified protein, by the assay type. The note with it: substrate of CgNal, co-substrate fixed at 100 mM for ManNAc and pyruvic acid, 37.0 °C.

Substrate in data set [3]: CC(=O)N[C@@H]1C(O)O[C@H](CO)[C@@H](O)[C@@H]1O
Nature of the data set: purified protein, by the assay type. The note with it: substrate of CgNal, co-substrate fixed at 100 mM for ManNAc and pyruvic acid, 37.0 °C.

Substrate in data set [4]: CC(=O)N[C@H]1[C@H]([C@H](O)[C@H](O)CO)OC(O)(C(=O)O)C[C@@H]1O
Nature of the data set: purified protein, by the assay type. The note with it: substrate of CgNal, co-substrate fixed at 100 mM for ManNAc and pyruvic acid, 37.0 °C.

Take `CCCCCCCCCCCCCCCC[N+](C)(C)C.[Br-]` [CTAB]: in data set [1], the “effect on reaction of CgNal in the decomposing Neu5Ac direction” value (“effect … in the decomposing Neu5Ac direction” below) is recorded as “inhibited” and the “overall effect on CgNal enzyme activity” value was “decreased the enzyme activity”.
For the molecule `CCCCCCCCCCCCOS(=O)(=O)[O-].[Na+]` [SDS], in data set [1] (5 mM additive), the “effect … in the decomposing Neu5Ac direction” value is listed as “inhibited”, the “effect on reaction of CgNal in the synthesizing Neu5Ac direction” value is given as “promoted”, the “effect on superiority of Neu5Ac synthesis over Neu5Ac decomposition” value is “promoted” and the “overall effect on CgNal enzyme activity” value was “decreased the enzyme activity”.
CoCl2: in data set [1], the “effect … in the decomposing Neu5Ac direction” value is “inhibited” and the “effect on reaction of CgNal in the synthesizing Neu5Ac direction” value was “promoted”.
As for NiSO4, in data set [1], the “effect … in the decomposing Neu5Ac direction” value was “inhibited” and the “effect on reaction of CgNal in the synthesizing Neu5Ac direction” value is given as “promoted”.
Regarding ZnCl2, in data set [1], the “effect … in the decomposing Neu5Ac direction” value is given as “inhibited”, the “effect on reaction of CgNal in the synthesizing Neu5Ac direction” value was “promoted”, the “effect on superiority of Neu5Ac synthesis over Neu5Ac decomposition” value is on record as “promoted” and the “overall effect on CgNal enzyme activity” value is reported as “decreased the enzyme activity”.

B1: CgNal (Corynebacterium glutamicum ATCC 13032) (protein)
chain: MASATFTGVIPPVMTPLHADGSVDVESLRKLVDHLINGGVDGLFALGSSGEAAFLTRAQRKLALTTIIEHTAGRVPVTAGVIETTTARVIELVEDALEAGAEGLVATAPFYTRTHDVEIEEHFRKIHAAAPELPLFAYNIPVSVHSNLNPVMLLTLAKDGVLAGTKDSSGNDGAIRSLIEARDDAGLTEQFKILTGSETTVDFAYLAGADGVVPGLGNVDPAAYAALAKLCLDGKWAEAAALQKRINHLFHIVFVGDTSHMSGSSAGLGGFKTALAHLGIIESNAMAVPHQSLSDEETARIHAIVDEFLYTA
On to B1, for which the Michaelis-Menten constant (Km) in data set [2] (other: pH 7.5, pH 7.5) was 14.7 mM; in data set [2] (other: pH 8.5, pH 8.5), 72.4 mM; in data set [3] (other: pH 7.5, pH 7.5), 53.3 mM; in data set [3] (other: pH 8.5, pH 8.5) it was 92.1 mM; in data set [4] (other: pH 7.5, pH 7.5), 33.5 mM; in data set [4] (other: pH 8.5, pH 8.5) it was 87.7 mM. Further, the Vmax in data set [2] (other: pH 7.5, pH 7.5) was 10.98 U/mg; in data set [2] (other: pH 8.5, pH 8.5), 76.64 U/mg; in data set [3] (other: pH 7.5, pH 7.5) it was 10.2 U/mg; in data set [3] (other: pH 8.5, pH 8.5), 73.2 U/mg; in data set [4] (other: pH 7.5, pH 7.5) it was 16.74 U/mg; in data set [4] (other: pH 8.5, pH 8.5), 79.6 U/mg.

A word on the Km: it is the substrate concentration at which the rate is half of its maximum.

For the origin of these results see patent publication US9512420B2, “Use of N-acetylneuraminic acid aldolase in catalytic synthesis of N-acetylneuraminic acid” (Nanjing University of Technology, priority 2013, dated 2016).
